Laboratory results published in patent US4582639A, “Antitumor antibiotic compound” (priority 1984, dated 1986).
Values after ≈ are worked out from the molar mass of the structure shown. Bridge positions count the residues as written; N and C are the ends. Square brackets hold non-standard residues; d marks the D form. Peptide text beside a SMILES is read from it. I, II: the chains in the order shown. * marks the point of attachment. Quinaldoyl(3-OH) = O=C(c1nc2ccccc2cc1O)*; NMeV = CN[CH](C(=O)O)C(C)C; Pip = O=C(O)[CH]1CCCCN1; Sar = CNCC(=O)O

What was measured:
[1] = tested on: B. subtilis (Rec. +) A22508-2; experiment: serial two-fold agar dilution, MIC; type: cell-based; conditions: Bacillus subtilis; B. subtilis (Rec. +) A22508-2, agar dilution; read-out: Minimum Inhibitory Concentration (MIC)
Procedure: (§1) The antibacterial activities of sandramycin were determined by a serial two-fold agar dilution method. The results are shown in Table 5 in comparison with the activities of luzopeptin A and echinomycin.

[2] = tested on: B. subtilis (Rec. -) A22509-2-2; experiment: serial two-fold agar dilution, MIC; type: cell-based; conditions: Bacillus subtilis; B. subtilis (Rec. -) A22509-2-2, agar dilution; read-out: Minimum Inhibitory Concentration (MIC)
Procedure: as §1

[3] = tested on: E. coli (actinomycin sensitive) A21780 (AS-19); experiment: serial two-fold agar dilution, MIC; type: cell-based; conditions: Escherichia coli, read-out: Minimum Inhibitory Concentration (MIC)
Procedure: as §1

E. coli A15119 = experiment: serial two-fold agar dilution, MIC; type: cell-based; conditions: Escherichia coli, read-out: Minimum Inhibitory Concentration (MIC)
Procedure: as §1

[4] = tested on: S. aureus (echinomycin resistant) A9628; experiment: microbe, parasite or virus in culture; type: cell-based; conditions: Staphylococcus aureus, read-out: Minimum Inhibitory Concentration (MIC)
Procedure: The antibacterial activities of sandramycin were determined by a serial two-fold agar dilution method.

Strep. faecalis A9611 = experiment: serial two-fold agar dilution, MIC; type: cell-based, Streptococcus faecalis; conditions: Enterococcus faecalis, read-out: Minimum Inhibitory Concentration (MIC)
Procedure: as §1

[5] = tested on: gram-positive organisms such as Bacillus subtilis and Staphylococcus aureus as well as Streptococcus faecalis; experiment: serial two-fold agar dilution, antibacterial activity in words; type: cell-based
Procedure: as §1

P-388 leukemia = experiment: transplantable mouse tumor P-388 leukemia; type: in vivo, mouse (CDF1 female mice)
Procedure: The methodology used generally followed the protocols of the National Cancer Institute [Cancer Chemotherapy Rep. Part 3, 3, 1-103 (1972)]. The essential experimental details are given at the bottom of Table 6. Two different dose regimens were tested: single dose on day 1 and daily for 5 days. With both schedules, the optimum dose appears to be about 0.2 mg/kg/injection.
Tumor inoculum: 10^6 ascites cells implanted i.p.
Evaluation: MST=median survival time
Effect: % T/C≥(MST treated/MST control)×100
Criteria: % T/C=125 considered significant antitumor activity
AWC: average weight change (treated-control) in grams (on day 4)

In the case of CS[C@H]1SC[C@H]2C(=O)N(C)[C@@H](C(C)C)C(=O)OC[C@@H](NC(=O)c3cnc4ccccc4n3)C(=O)N[C@@H](C)C(=O)N(C)[C@@H]1C(=O)N(C)[C@@H](C(C)C)C(=O)OC[C@@H](NC(=O)c1cnc3ccccc3n1)C(=O)N[C@@H](C)C(=O)N2C [Echinomycin], the MIC [1] is reported as 0.049 µg/mL (≈ 0.0445 µM), the MIC [2] is reported as under 0.003 µg/mL and the MIC [3] is reported as 6.25 µg/mL (≈ 5.68 µM). The MIC (E. coli A15119) was 12.5 µg/mL (≈ 11.4 µM), the MIC [4] was 0.78 µg/mL (≈ 0.708 µM) and the MIC (Strep. faecalis A9611) was 0.012 µg/mL (≈ 0.0109 µM).

Work on COc1ccc2nc(C(=O)N[C@@H]3COC(=O)[C@H](C(C)(C)O)N(C)C(=O)CN(C)C(=O)CNC(=O)C4C(OC(C)=O)CC=NN4C(=O)[C@H](NC(=O)c4nc5ccc(OC)cc5cc4O)COC(=O)[C@H](C(C)(C)O)N(C)C(=O)CN(C)C(=O)CNC(=O)C4C(OC(C)=O)CC=NN4C3=O)c(O)cc2c1 (some centres unmarked) [Luzopeptin A] yielded an MIC [1] of 0.195 µg/mL (≈ 0.137 µM), an MIC [2] of 0.049 µg/mL (≈ 0.0343 µM) and an MIC [3] of 12.5 µg/mL (≈ 8.76 µM). For the same compound, the MIC (E. coli A15119) was 12.5 µg/mL (≈ 8.76 µM), the MIC [4] was 0.098 µg/mL (≈ 0.0687 µM) and the MIC (Strep. faecalis A9611) was 0.195 µg/mL (≈ 0.137 µM).

In the case of CC(C)C1C(=O)OCC(NC(=O)c2nc3ccccc3cc2O)C(=O)N2CCCCC2C(=O)NCC(=O)N(C)CC(=O)N(C)C(C(C)C)C(=O)OCC(NC(=O)c2nc3ccccc3cc2O)C(=O)N2CCCCC2C(=O)NCC(=O)N(C)CC(=O)N1C (centres unmarked) [Sandramycin] (I: {Quinaldoyl(3-OH)}-S[Pip]G[Sar][NMeV] / II: {Quinaldoyl(3-OH)}-S[Pip]G[Sar][NMeV]; ester I:1-II:C, I:C-II:1; configuration not given here), the MIC [1] is reported as 0.024 µg/mL (≈ 0.0197 µM), the MIC [2] is reported as 0.012 µg/mL (≈ 0.00983 µM) and the MIC [3] is reported as 12.5 µg/mL (≈ 10.2 µM). For the same compound, the MIC (E. coli A15119) was 12.5 µg/mL (≈ 10.2 µM), the MIC [4] was 0.098 µg/mL (≈ 0.0802 µM) and the MIC (Strep. faecalis A9611) was 0.024 µg/mL (≈ 0.0197 µM). The antibacterial activity [5] was “strongly inhibitory”, the optimum dose (P-388 leukemia; IP, both schedules (single dose on day 1 and daily for 5 days)) was “about 0.2 mg/kg/injection” and the “AWC Day 4” value (P-388 leukemia; d. 1, IP, 0.025 mg/kg/inj.) was -0.2 gm. The MST (P-388 leukemia; d. 1, IP, 0.025 mg/kg/inj.) was 9.5 days, the “MST % T/C” value (P-388 leukemia; d. 1, IP, 0.025 mg/kg/inj.) was 106% and the “Survivors Day 5” value (P-388 leukemia; d. 1, IP, 0.025 mg/kg/inj.) was 6/6. The “AWC Day 4” value (P-388 leukemia; d. 1, IP, 0.05 mg/kg/inj.) was -0.6 gm, the MST (P-388 leukemia; d. 1, IP, 0.05 mg/kg/inj.) was 10.0 days and the “MST % T/C” value (P-388 leukemia; d. 1, IP, 0.05 mg/kg/inj.) was 111%. For the same compound, the “Survivors Day 5” value (P-388 leukemia; d. 1, IP, 0.05 mg/kg/inj.) was 6/6, the “AWC Day 4” value (P-388 leukemia; d. 1, IP, 0.1 mg/kg/inj.) was -0.9 gm and the MST (P-388 leukemia; d. 1, IP, 0.1 mg/kg/inj.) was 11.0 days. For the same compound, the “MST % T/C” value (P-388 leukemia; d. 1, IP, 0.1 mg/kg/inj.) was 122%, the “Survivors Day 5” value (P-388 leukemia; d. 1, IP, 0.1 mg/kg/inj.) was 6/6 and the “AWC Day 4” value (P-388 leukemia; d. 1, IP, 0.2 mg/kg/inj.) was -1.4 gm. The MST (P-388 leukemia; d. 1, IP, 0.2 mg/kg/inj.) was 14.5 days, the “MST % T/C” value (P-388 leukemia; d. 1, IP, 0.2 mg/kg/inj.) was 161% and the “Survivors Day 5” value (P-388 leukemia; d. 1, IP, 0.2 mg/kg/inj.) was 6/6. The “AWC Day 4” value (P-388 leukemia; d. 1, IP, 0.4 mg/kg/inj.) was -0.7 gm, the MST (P-388 leukemia; d. 1, IP, 0.4 mg/kg/inj.) was 11.0 days and the “MST % T/C” value (P-388 leukemia; d. 1, IP, 0.4 mg/kg/inj.) was 122%. For the same compound, the “Survivors Day 5” value (P-388 leukemia; d. 1, IP, 0.4 mg/kg/inj.) was 6/6, the “AWC Day 4” value (P-388 leukemia; d. 1, IP, 0.8 mg/kg/inj.) was -1.6 gm and the MST (P-388 leukemia; d. 1, IP, 0.8 mg/kg/inj.) was 10.0 days. For the same compound, the “MST % T/C” value (P-388 leukemia; d. 1, IP, 0.8 mg/kg/inj.) was 111%, the “Survivors Day 5” value (P-388 leukemia; d. 1, IP, 0.8 mg/kg/inj.) was 6/6 and the “AWC Day 4” value (P-388 leukemia; d. 1, IP, 1.6 mg/kg/inj.) was -1.3 gm. For the same compound, the MST (P-388 leukemia; d. 1, IP, 1.6 mg/kg/inj.) was 11.5 days, the “MST % T/C” value (P-388 leukemia; d. 1, IP, 1.6 mg/kg/inj.) was 128% and the “Survivors Day 5” value (P-388 leukemia; d. 1, IP, 1.6 mg/kg/inj.) was 6/6. For the same compound, the “AWC Day 4” value (P-388 leukemia; d. 1, IP, 3.2 mg/kg/inj.) was -2.8 gm, the MST (P-388 leukemia; d. 1, IP, 3.2 mg/kg/inj.) was “Toxic” and the “MST % T/C” value (P-388 leukemia; d. 1, IP, 3.2 mg/kg/inj.) was “Toxic”. The “Survivors Day 5” value (P-388 leukemia; d. 1, IP, 3.2 mg/kg/inj.) was 0/6, the “AWC Day 4” value (P-388 leukemia; d. 1→5, IP, 0.0125 mg/kg/inj.) was -0.9 gm and the MST (P-388 leukemia; d. 1→5, IP, 0.0125 mg/kg/inj.) was 10.5 days. The “MST % T/C” value (P-388 leukemia; d. 1→5, IP, 0.0125 mg/kg/inj.) was 117%, the “AWC Day 4” value (P-388 leukemia; d. 1→5, IP, 0.025 mg/kg/inj.) was -1.4 gm and the MST (P-388 leukemia; d. 1→5, IP, 0.025 mg/kg/inj.) was 10.0 days. For the same compound, the “MST % T/C” value (P-388 leukemia; d. 1→5, IP, 0.025 mg/kg/inj.) was 111%, the “Survivors Day 5” value (P-388 leukemia; d. 1→5, IP, 0.025 mg/kg/inj.) was 5/5 and the “AWC Day 4” value (P-388 leukemia; d. 1→5, IP, 0.05 mg/kg/inj.) was -1.8 gm. The MST (P-388 leukemia; d. 1→5, IP, 0.05 mg/kg/inj.) was 8.5 days, the “MST % T/C” value (P-388 leukemia; d. 1→5, IP, 0.05 mg/kg/inj.) was 94% and the “Survivors Day 5” value (P-388 leukemia; d. 1→5, IP, 0.05 mg/kg/inj.) was 6/6. The “AWC Day 4” value (P-388 leukemia; d. 1→5, IP, 0.1 mg/kg/inj.) was -0.8 gm, the MST (P-388 leukemia; d. 1→5, IP, 0.1 mg/kg/inj.) was 11.5 days and the “MST % T/C” value (P-388 leukemia; d. 1→5, IP, 0.1 mg/kg/inj.) was 128%. For the same compound, the “Survivors Day 5” value (P-388 leukemia; d. 1→5, IP, 0.1 mg/kg/inj.) was 6/6, the “AWC Day 4” value (P-388 leukemia; d. 1→5, IP, 0.2 mg/kg/inj.) was -1.7 gm and the MST (P-388 leukemia; d. 1→5, IP, 0.2 mg/kg/inj.) was 12.0 days. The “MST % T/C” value (P-388 leukemia; d. 1→5, IP, 0.2 mg/kg/inj.) was 133%, the “Survivors Day 5” value (P-388 leukemia; d. 1→5, IP, 0.2 mg/kg/inj.) was 5/6 and the “AWC Day 4” value (P-388 leukemia; d. 1→5, IP, 0.4 mg/kg/inj.) was -1.3 gm. For the same compound, the MST (P-388 leukemia; d. 1→5, IP, 0.4 mg/kg/inj.) was 11.0 days, the “MST % T/C” value (P-388 leukemia; d. 1→5, IP, 0.4 mg/kg/inj.) was 122% and the “Survivors Day 5” value (P-388 leukemia; d. 1→5, IP, 0.4 mg/kg/inj.) was 6/6. The “AWC Day 4” value (P-388 leukemia; d. 1→5, IP, 0.8 mg/kg/inj.) was -1.4 gm, the MST (P-388 leukemia; d. 1→5, IP, 0.8 mg/kg/inj.) was 6.0 days and the “MST % T/C” value (P-388 leukemia; d. 1→5, IP, 0.8 mg/kg/inj.) was 67%. The “Survivors Day 5” value (P-388 leukemia; d. 1→5, IP, 0.8 mg/kg/inj.) was 5/6, the “AWC Day 4” value (P-388 leukemia; d. 1→5, IP, 1.6 mg/kg/inj.) was -1.7 gm and the MST (P-388 leukemia; d. 1→5, IP, 1.6 mg/kg/inj.) was “Toxic”. For the same compound, the “MST % T/C” value (P-388 leukemia; d. 1→5, IP, 1.6 mg/kg/inj.) was “Toxic” and the “Survivors Day 5” value (P-388 leukemia; d. 1→5, IP, 1.6 mg/kg/inj.) was 2/6.
